For one test, the target named is EGFR del19 T790M C797S (Homo sapiens, UniProt P00533, C797S/T790M, form not given). The experiment in a line: pEGFR assay: phosphorylation of EGFR at Tyr1068 in Ba/F3 cells (AlphaScreen Surefire). In kind it is cell-based. Particulars: 4 h. The procedure:
Transduced cells were selected using puromycin. Following selection, IL-3 was withdrawn and IL-3 independent cells cultured. p-EGFR Tyr1068 was determined using the AlphaScreen Surefire pEGF Receptor (Tyr1068) Assay (PerkinElmer, TGRERS). […] Subsequently, 60.000 cells/well in 60 μL were added. Cells were incubated with compound for 4 h at 37° C. […] The mixture was incubated at room temperature with shaking (700 rpm) for 20 min. After centrifugation, 4 μL of the lysate were transferred to Proxiplates. […] Plates were shaken for 1 min (1400 rpm) and incubated for 2 h at room temperature in the dark.
For orientation: In Alpha technology, singlet oxygen from a donor bead excites a nearby acceptor bead.
EGFR del19 T790M C797S, sequence (P00533 25-1210 T790M/C797S limits assumed, form open): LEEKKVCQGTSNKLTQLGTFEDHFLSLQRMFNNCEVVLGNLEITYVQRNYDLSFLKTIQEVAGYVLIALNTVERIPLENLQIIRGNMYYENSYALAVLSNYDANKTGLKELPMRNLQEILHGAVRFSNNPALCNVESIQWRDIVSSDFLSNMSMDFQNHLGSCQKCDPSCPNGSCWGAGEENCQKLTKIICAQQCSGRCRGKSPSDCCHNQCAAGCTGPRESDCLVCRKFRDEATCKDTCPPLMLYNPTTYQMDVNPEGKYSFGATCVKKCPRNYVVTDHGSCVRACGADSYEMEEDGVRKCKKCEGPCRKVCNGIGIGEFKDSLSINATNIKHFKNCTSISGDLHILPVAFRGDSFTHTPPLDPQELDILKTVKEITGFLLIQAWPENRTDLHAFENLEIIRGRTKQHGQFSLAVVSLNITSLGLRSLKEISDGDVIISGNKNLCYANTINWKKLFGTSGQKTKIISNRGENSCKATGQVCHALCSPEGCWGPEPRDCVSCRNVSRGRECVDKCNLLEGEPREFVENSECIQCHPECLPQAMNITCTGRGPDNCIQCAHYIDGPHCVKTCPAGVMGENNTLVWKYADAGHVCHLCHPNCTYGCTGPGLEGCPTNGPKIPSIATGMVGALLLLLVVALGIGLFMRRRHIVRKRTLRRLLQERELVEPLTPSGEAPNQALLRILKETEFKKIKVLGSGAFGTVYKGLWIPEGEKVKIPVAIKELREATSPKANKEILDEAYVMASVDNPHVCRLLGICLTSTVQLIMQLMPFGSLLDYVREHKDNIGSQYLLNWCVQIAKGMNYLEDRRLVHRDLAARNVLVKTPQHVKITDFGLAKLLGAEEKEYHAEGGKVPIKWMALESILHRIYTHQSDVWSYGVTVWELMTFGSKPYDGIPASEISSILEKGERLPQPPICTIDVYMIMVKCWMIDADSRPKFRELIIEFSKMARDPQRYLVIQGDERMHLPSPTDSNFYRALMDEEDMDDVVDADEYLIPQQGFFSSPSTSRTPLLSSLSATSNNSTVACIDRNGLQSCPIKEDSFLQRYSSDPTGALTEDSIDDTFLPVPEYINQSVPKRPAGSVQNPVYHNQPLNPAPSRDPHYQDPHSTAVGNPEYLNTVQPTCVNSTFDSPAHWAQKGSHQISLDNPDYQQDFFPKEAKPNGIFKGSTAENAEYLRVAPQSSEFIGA
EGFR wt, sequence (P00533 25-1210): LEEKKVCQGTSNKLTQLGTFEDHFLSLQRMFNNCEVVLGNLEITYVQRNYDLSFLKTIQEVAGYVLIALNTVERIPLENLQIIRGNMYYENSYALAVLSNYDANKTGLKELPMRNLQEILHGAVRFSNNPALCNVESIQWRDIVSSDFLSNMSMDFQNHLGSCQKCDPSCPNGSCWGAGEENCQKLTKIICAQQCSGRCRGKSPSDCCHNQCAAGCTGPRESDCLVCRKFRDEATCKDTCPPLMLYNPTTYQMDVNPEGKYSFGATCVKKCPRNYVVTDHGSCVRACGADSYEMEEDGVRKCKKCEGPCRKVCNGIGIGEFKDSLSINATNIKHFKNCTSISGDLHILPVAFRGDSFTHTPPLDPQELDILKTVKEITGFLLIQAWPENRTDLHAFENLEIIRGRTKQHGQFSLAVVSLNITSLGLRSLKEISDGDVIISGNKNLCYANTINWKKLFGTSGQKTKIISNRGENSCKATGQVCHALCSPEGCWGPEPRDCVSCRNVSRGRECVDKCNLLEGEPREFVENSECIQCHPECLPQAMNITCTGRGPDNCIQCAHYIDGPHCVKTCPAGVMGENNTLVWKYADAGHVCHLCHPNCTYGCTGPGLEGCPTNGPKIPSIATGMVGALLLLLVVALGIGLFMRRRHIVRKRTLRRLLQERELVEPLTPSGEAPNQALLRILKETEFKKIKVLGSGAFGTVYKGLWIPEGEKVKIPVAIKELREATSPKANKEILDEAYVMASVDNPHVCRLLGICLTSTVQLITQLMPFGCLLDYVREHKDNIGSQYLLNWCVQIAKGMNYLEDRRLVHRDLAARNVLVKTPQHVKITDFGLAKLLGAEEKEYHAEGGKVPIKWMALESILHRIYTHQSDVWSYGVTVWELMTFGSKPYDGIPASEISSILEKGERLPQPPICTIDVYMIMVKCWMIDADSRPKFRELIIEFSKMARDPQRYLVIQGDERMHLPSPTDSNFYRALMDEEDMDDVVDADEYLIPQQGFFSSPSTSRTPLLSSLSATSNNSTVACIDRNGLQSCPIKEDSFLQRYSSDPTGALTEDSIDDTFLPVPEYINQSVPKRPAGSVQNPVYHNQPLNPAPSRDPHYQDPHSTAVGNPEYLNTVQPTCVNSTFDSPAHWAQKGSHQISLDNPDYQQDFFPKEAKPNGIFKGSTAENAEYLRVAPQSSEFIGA
In turn, `Cc1cc2cc(n1)-c1cnn(C)c1OCCCCCN1/C(=N/C2=O)Nc2ccccc21` [Compound I-001] displayed an IC50 of 1.2 nM.

`Cc1cc2cc(n1)-c1cnn(C)c1OCCCCCCN1/C(=N/C2=O)Nc2ccccc21` [Compound I-002] showed an IC50 of 4.2 nM. The molecule `C[C@@H]1CCCOc2c(cnn2C)-c2cc(cc(C#N)n2)C(=O)/N=C2\Nc3ccccc3N2C1` [Compound I-004] gave an IC50 of 1.3 nM. `Cc1cc2cc(n1)-c1cnn(C)c1OCC[C@@H]1CC[C@@H](C1)N1/C(=N/C2=O)Nc2ccccc21` [Compound I-006] came in with an IC50 of 17 nM. `Cc1cc2cc(n1)-c1cnn(C)c1OCCC[C@@H](O)CN1/C(=N/C2=O)Nc2ccccc21` [Compound I-007] came in with an IC50 of 1.1 nM.

`Cc1cc2cc(n1)-c1cnn(C)c1OCCC[C@H](O)CN1/C(=N/C2=O)Nc2ccccc21` [Compound I-008] showed an IC50 of 7.4 nM. Regarding `Cc1cc2cc(n1)-c1cnn(C)c1OCC[C@H](O)CCN1/C(=N/C2=O)Nc2ccccc21` [Compound I-009], the IC50 worked out at 1 nM. Molecule `Cc1cc2cc(n1)-c1cnn(C)c1OCCC(O)CCN1/C(=N/C2=O)Nc2ccccc21` (stereo not shown) [Compound I-010] had an IC50 of 1.2 nM. For the molecule `Cc1cc2cc(n1)-c1cnn(C)c1OCC[C@@H](O)CCN1/C(=N/C2=O)Nc2ccccc21` [Compound I-011], the IC50 is 6.5 nM. The molecule `Cn1ncc2c1OCCC(O)CCN1/C(=N/C(=O)c3cc(Cl)nc-2c3)Nc2ccccc21` (stereo not shown) [Compound I-012] registered an IC50 of 5.2 nM.

As for `Cc1cc2cc(n1)-c1cnn(C)c1OC[C@@H](O)C[C@@H](C)CN1/C(=N/C2=O)Nc2ccccc21` [Compound I-013], the IC50 is 0.7 nM. On the same count and under the same terms, as for `Cc1cc2cc(n1)-c1cnn(C)c1OC[C@H](O)C[C@@H](C)CN1/C(=N/C2=O)Nc2ccccc21` [Compound I-014], the figure is 4.2 nM; as for `Cc1cc2cc(n1)-c1cnn(C)c1OCC[C@H](O)[C@@H](C)CN1/C(=N/C2=O)Nc2ccccc21` [Compound I-015], 0.6 nM; as for `Cc1cc2cc(n1)-c1cnn(C)c1OC[C@@H](C)[C@H](O)CCN1/C(=N/C2=O)Nc2ccccc21` [Compound I-016], 0.8 nM. The molecule `Cc1cc2cc(n1)-c1cnn(C)c1OC[C@@H](C)[C@@H](O)CCN1/C(=N/C2=O)Nc2ccccc21` [Compound I-017] gave an IC50 of 8.9 nM.

For the molecule `Cc1cc2cc(n1)-c1cnn(C)c1OCCC[C@@H](C)CN1/C(=N/C2=O)Nc2ccc(OCCN3CCN(C)CC3)cc21` [Compound I-018], the IC50 stood at 0.5 nM.

As for `Cc1cc2cc(n1)-c1cnn(C)c1OCCC[C@@H](C)CN1/C(=N/C2=O)Nc2ccc(N3CCN(C)CC3)cc21` [Compound I-019], the IC50 came to 0.6 nM.

Take `CC[C@@H]1CCCOc2c(cnn2C)-c2cc(cc(C)n2)C(=O)/N=C2\Nc3ccc(N4CCN(C)CC4)cc3N2C1` [Compound I-020]: the IC50 was 0.6 nM. The same measure, in the same setting: as for `C[C@@H]1CCCOc2c(cnn2C)-c2cc(cc(Cl)n2)C(=O)/N=C2\Nc3ccc(CN4CCN(C)CC4)cc3N2C1` [Compound I-022], the figure is 0.8 nM; as for `C[C@@H]1CCCOc2c(cnn2C)-c2cc(cc(F)n2)C(=O)/N=C2\Nc3cn(C)nc3N2C1` [Compound I-023], 0.5 nM; as for `Cc1cc2cc(n1)-c1cnn(C)c1OCCC[C@@H](C)CN1/C(=N/C2=O)Nc2cn(C)nc21` [Compound I-024], 0.6 nM. For `Cc1cc2cc(n1)-c1cnn(C)c1OCCC[C@@H](C)CN1/C(=N/C2=O)Nc2cnn(C)c21` [Compound I-025], the IC50 came to 0.8 nM. The same measure, in the same setting: the figure for `C[C@@H]1CCCOc2c(cnn2C)-c2cc(cc(Cl)n2)C(=O)/N=C2\Nc3cn(C)nc3N2C1` [Compound I-026] is 1.5 nM; for `C[C@@H]1C[C@H](O)COc2c(cnn2C)-c2cc(cc(Cl)n2)C(=O)/N=C2\Nc3cn(C)nc3N2C1` [Compound I-028] it is 3.5 nM. For `C[C@@H]1CCCOc2c(cnn2C)-c2cc(cc(Cl)n2)C(=O)/N=C2\Nc3cnn(C)c3N2C1` [Compound I-029], the IC50 was found to be 7.5 nM. In the case of `Cc1cc2cc(n1)-c1cnn(C)c1OCCC(O)CCN1/C(=N/C2=O)Nc2cnn(C)c21` (stereo not shown) [Compound I-030], the IC50 amounted to 28 nM. `Cc1cc2cc(n1)-c1cnn(C)c1OC[C@@H](C)CCCN1/C(=N/C2=O)Nc2ccc(N3CCN(C)CC3)cc21` [Compound I-031] showed an IC50 of 0.5 nM. The molecule `Cc1cc2cc(n1)-c1cnn(C)c1OCCC[C@@H](C)CN1/C(=N/C2=O)Nc2ccc(N3CCOCC3)cc21` [Compound I-032] came in with an IC50 of 0.6 nM. Take `Cc1cc2cc(n1)-c1cnn(C)c1OCCC[C@@H](C)CN1/C(=N/C2=O)Nc2cc(N3CCN(C)CC3)ccc21` [Compound I-033]: the IC50 came out at 0.6 nM. `C[C@@H]1CCCOc2c(cnn2C)-c2cc(cc(F)n2)C(=O)/N=C2\Nc3ccccc3N2C1` [Compound I-034] displayed an IC50 of 0.7 nM.

As to `Cc1cc2cc(n1)-c1cnn(C)c1OCCC[C@@H](C)CN1/C(=N/C2=O)Nc2ccc(CN(C)C)cc21` [Compound I-035], the IC50 turned out to be 0.7 nM. Molecule `C[C@@H]1CCCOc2c(cnn2C)-c2cc(ccn2)C(=O)/N=C2\Nc3cnn(C)c3N2C1` [Compound I-036] showed an IC50 of 0.7 nM. Consider `Cc1cc2cc(n1)-c1cnn(C)c1OCCC[C@@H](C)CN1/C(=N/C2=O)Nc2ccc(C(=O)N(C)C)cc21` [Compound I-038], for which the IC50 worked out at 1.3 nM. For `Cc1cc2cc(n1)-c1cnn(C)c1OCCC[C@@H](C)CN1/C(=N/C2=O)Nc2ccc(C(=O)N3CCN(C)CC3)cc21` [Compound I-039], the IC50 is 1.6 nM.

In turn, `Cc1cc2cc(n1)-c1cnn(C)c1OC[C@@H](C)CCCN1/C(=N/C2=O)Nc2cnn(C)c21` [Compound I-040] came in with an IC50 of 1.7 nM. In turn, `COc1cccc2c1N1C[C@H](C)CCCOc3c(cnn3C)-c3cc(cc(C)n3)C(=O)/N=C/1N2` [Compound I-041] returned an IC50 of 1.9 nM. Molecule `COC(=O)c1ccc2c(c1)N1C[C@H](C)CCCOc3c(cnn3C)-c3cc(cc(C)n3)C(=O)/N=C/1N2` [Compound I-042] gave an IC50 of 2.3 nM. On to `Cc1cc2cc(n1)-c1cnn(C)c1OC[C@@H](C)CCCN1/C(=N/C2=O)Nc2cc(N3CCN(C)CC3)ccc21` [Compound I-043], for which the IC50 is 2.3 nM.

On to `C[C@@H]1CCCOc2c(cnn2C)-c2cc(ccn2)C(=O)/N=C2\Nc3cn(C)nc3N2C1` [Compound I-044], for which the IC50 came to 3.4 nM.

`Cc1cc2cc(n1)-c1cnn(C)c1OCC[C@@H](O)[C@H](C)CN1/C(=N/C2=O)Nc2ccccc21` [Compound I-045] had an IC50 of 3.6 nM. `O=C1/N=C2\Nc3ccccc3N2CCCCCOc2ccccc2-c2cc1ccn2` [Compound I-047] had an IC50 of 6.2 nM. On to `C[C@@H]1CCOc2ccccc2-c2cc(ccn2)C(=O)/N=C2\Nc3ccccc3N2CC1` [Compound I-048], for which the IC50 is 15 nM. Same read-out and setting: as for `Cc1cc2cc(n1)-c1ccccc1OCCCCCN1/C(=N/C2=O)Nc2ccccc21` [Compound I-049], the figure is 16 nM; as for `CC1(C)CCCOc2ccccc2-c2cc(ccn2)C(=O)/N=C2\Nc3ccccc3N2C1` [Compound I-050], 17 nM. Consider `C[C@H]1CCCOc2ccccc2-c2cc(ccn2)C(=O)/N=C2\Nc3ccccc3N2C1` [Compound I-051], for which the IC50 was 20 nM. Turning to `Cc1cc2cc(n1)-c1cnn(C)c1OCCCCCCCN1/C(=N/C2=O)Nc2ccccc21` [Compound I-052], the IC50 worked out at 23 nM. `O=C1/N=C2\Nc3ccccc3N2CCCCCOc2cc(F)ccc2-c2cc1ccn2` [Compound I-053] displayed an IC50 of 24 nM. With `CC1(C)CCOc2ccccc2-c2cc(ccn2)C(=O)/N=C2\Nc3ccccc3N2CC1` [Compound I-054], the IC50 came to 25 nM. Regarding `Cc1cc2cc(n1)-c1cnn(C)c1OCCCCN1/C(=N/C2=O)Nc2ccccc21` [Compound I-055], the IC50 was determined as 66 nM.

`Cc1cc2cc(n1)-c1ccc(F)cc1OCCCCCN1/C(=N/C2=O)Nc2ccccc21` [Compound I-056] showed an IC50 of 69 nM.

For a further test, the target named is EGFR (mutated) 695-1022, T790M, C797S, L858R (Homo sapiens (Human), UniProt P00533, C797S/L858R/T790M). The experiment in a line: Biochemical EGFR inhibition assay (poly-GT substrate phosphorylation, TR-FRET LANCE Ultra). Particulars: 100 μM ATP; read-out: LR_TM_CS (100 μM ATP). How it is done: (§1) Initially, the inhibitory effect of compounds according to the invention is measured in biochemical assays which measure the phosphorylation activity of EGFR enzyme forms on poly-GT substrate in the presence of different concentrations of ATP (5 μM and 100 μM final assay concentration).
EGFR (mutated) 695-1022, T790M, C797S, L858R, sequence (P00533 695-1022 T790M/C797S/L858R): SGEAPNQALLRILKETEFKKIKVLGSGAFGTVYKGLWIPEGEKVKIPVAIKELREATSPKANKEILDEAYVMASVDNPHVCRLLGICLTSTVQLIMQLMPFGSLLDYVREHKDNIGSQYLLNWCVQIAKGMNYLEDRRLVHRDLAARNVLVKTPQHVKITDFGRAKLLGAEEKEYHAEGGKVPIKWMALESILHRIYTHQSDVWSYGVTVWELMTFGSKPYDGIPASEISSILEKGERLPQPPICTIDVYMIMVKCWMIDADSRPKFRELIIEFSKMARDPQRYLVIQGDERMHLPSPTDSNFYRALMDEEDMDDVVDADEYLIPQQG
(§2) The following enzyme forms of EGFR are representative examples that can be used in these assays at the given concentrations:
(§3) For the chosen highest assay concentration of 100 μM, 150 nL of compound solution is transferred from a 10 mM DMSO compound stock solution. A series of eleven fivefold dilutions per compound is transferred to the assay plate, compound dilutions are tested in duplicates. DMSO is added as backfill to a total volume of 150 nL. The assay runs on a fully automated robotic system.
(§4) 5 μL of EGFR enzyme form in assay buffer (50 mM HEPES pH 7.3, 10 mM MgCl2, 1 mM EGTA, 0.01% Tween 20, 2 mM DTT) are dispensed into columns 1-23, than 5 μL of ATP and ULight-poly-GT substrate (PerkinElmer; TRF0100-M) mix in assay buffer is added to all wells (final assay concentration of the ULight-poly-GT substrate 200 nM). Each of the different EGFR enzyme form assays is available at low ATP (final assay concentration 5 μM) and high ATP levels (final assay concentration 100 μM). After 90 minutes incubation at room temperature 5 μL EDTA (final assay concentration 50 mM) and LANCE Eu-anti-P-Tyr (PT66) antibody (PerkinElmer, AD0069) (final assay concentration 6 nM) mix are added to stop the reaction and start the binding of the antibody. […] Each plate contains 16 wells of a negative control (diluted DMSO instead of test compound; w EGFR enzyme form; column 23) and 16 wells of a positive control (diluted DMSO instead of test compound; w/o EGFR enzyme form; column 24). Negative and positive control values are used for normalization and IC50 values are calculated and analysed using a 4 parametric logistic model.
(§5) These biochemical EGFR enzyme form compound dose-response assays quantify the kinase activity via phosphorylation of a tagged poly-GT substrate. The results of the assay are provided as IC50 values.
As for `Cc1cc2cc(n1)-c1cnn(C)c1OCCCCCN1/C(=N/C2=O)Nc2ccccc21` [Compound I-001], the IC50 came to 6 nM.

The next test deals with EGFR wt (Homo sapiens (Human), UniProt P00533). The test is described as above. Particulars: 100 μM ATP; read-out: wt (100 μM ATP). How it is done:
as §1, §2, §3, §4, §5
With `Cc1cc2cc(n1)-c1cnn(C)c1OCCCCCN1/C(=N/C2=O)Nc2ccccc21` [Compound I-001], the IC50 was above 100000 nM.

The values above are taken from US12522615B2, “Macrocyclic compounds and derivatives as EGFR inhibitors” (Boehringer Ingelheim International GmbH, priority 2019, dated 2026).
